{"source": "patent US20240261224A1", "about": "“FORMULATION OF A PAN-JAK INHIBITOR” (KINASET THERAPEUTICS, INC., priority 2022, published 2024)", "system": "induced sputum eosinophil count", "experiment": "Phase 1 Part 3 induced sputum differential eosinophil count", "type": "in vivo, human", "conditions": "4 mg BID", "text": "Day 10 sputum and serum inflammatory biomarkers are shown below in Table 29. Part 3 included an evaluation of sputum samples obtained by sputum induction in accordance with European Respiratory Society guidelines (Paggiaro, et al., Eur. Respir. J. 2002, 20: Suppl. 37, 3 s). Subjects were randomized into sputum-producer and non-sputum producer strata with a target minimum of approximately 50% of subjects able to provide an adequate sputum sample at screening. […] Differential cell counts (DCC) were performed on samples judged adequate per standard procedure and patients with evaluable baseline (screening) and Day 10 (or Day 11 if Day 10 was not adequate) post-treatment samples were considered for analyses that included individual and mean absolute and percentage differential eosinophil counts.\nIn the sputum producer stratum, 6 Compound I (active) subjects and 2 placebo subjects were identified as having adequate baseline and post-treatment sputum samples and the resultant data was used to determine change from baseline, mean change from baseline, and mean placebo-corrected change from baseline (Compound I vs placebo). […] At baseline, all subjects manifested a percent differential eosinophil count >3%, indicative of active eosinophilic inflammation. By Day 10, 66% ( 4/6) of active subjects had improved below 3% eosinophils, with 50% ( 3/6) below a more stringent threshold of 1.9% (Reddel et al., Am. J. Respir. Crit. Care Med. 2009, 180, 59).", "key": {"[1]": {"conditions": "Day 10, Mean of active subjects (n = 6)"}, "[2]": {"conditions": "Day 10, active (n = 6) vs placebo (n = 2)"}, "[3]": {"conditions": "Day 10, individual active subjects 13026, 13027, 13038, 13073, 13095, 13097 (c1-c6)"}, "[4]": {"conditions": "Mean of active subjects (n = 6)"}, "[5]": {"conditions": "individual active subjects 13026, 13027, 13038, 13073, 13095, 13097 (c1-c6)"}}, "note": "“And” between values parts separate entries of the source, which are not always exact repeats. Equal entries are not always repeated."}
{"smiles": "Cn1c(=O)n([C@H]2CCCN(C(=O)CC#N)C2)c2nc(-c3cnn4ccccc34)ccc21", "note": "[Compound I, (S)-3-(3-(1-methyl-2-oxo-5-(pyrazolo[1,5-a]pyridine-3-yl)-1H-imidazo[4,5-b]pyridine-3(2H)-yl)piperidin-1-yl)-3-oxopropanenitrile]", "values": [{"measurement": "Induced sputum % differential eosinophil count, % Change from Screening", "setting": "[1]", "result": "−65", "unit": "%"}, {"measurement": "Induced sputum % differential eosinophil count, Change from Screening", "setting": "[1]", "result": "−6.8", "unit": "%"}, {"measurement": "Induced sputum absolute differential eosinophil count, % Change from Screening", "setting": "[1]", "result": "−79", "unit": "%"}, {"measurement": "Induced sputum absolute differential eosinophil count, Change from Screening", "setting": "[1]", "result": "−0.15 10^6/g"}, {"measurement": "Induced sputum % differential eosinophil count, Mean placebo-corrected change", "setting": "[2]", "result": "−21.3", "unit": "%"}, {"measurement": "Induced sputum absolute differential eosinophil count, Mean placebo-corrected change", "setting": "[2]", "result": "−0.22 10^6/g"}, {"measurement": "Induced sputum % differential eosinophil count, % Change from Screening", "setting": "[3]", "result": "−54% and −48% and −81% and −64% and −75% and −94%"}, {"measurement": "Induced sputum % differential eosinophil count, Change from Screening", "setting": "[3]", "result": "−8.3% and −2.3% and −4.3% and −18.8% and −3.0% and −4.5%"}, {"measurement": "Induced sputum % differential eosinophil count, Reduced to normal level (<3%)", "setting": "[3]", "result": "No (2×) and Yes (4×)"}, {"measurement": "Induced sputum absolute differential eosinophil count, % Change from Screening", "setting": "[3]", "result": "−70% and −75% (2×) and −89% and −88% and −100%"}, {"measurement": "Induced sputum absolute differential eosinophil count, Change from Screening", "setting": "[3]", "result": "−0.16 10^6/g and −0.09 10^6/g and −0.08 10^6/g and −0.33 10^6/g and −0.07 10^6/g and −0.17 10^6/g"}, {"measurement": "Active subjects below more stringent threshold of 1.9% eosinophils (sputum)", "setting": "by Day 10 (3/6)", "result": 50, "unit": "%"}, {"measurement": "Active subjects improved below 3% eosinophils (sputum percent differential count)", "setting": "by Day 10 (4/6)", "result": 66, "unit": "%"}, {"measurement": "Induced sputum % differential eosinophil count, Day 10 level", "setting": "[4]", "result": 3.7, "unit": "%"}, {"measurement": "Induced sputum absolute differential eosinophil count, Day 10 level", "setting": "[4]", "result": "0.04 10^6/g"}, {"measurement": "Induced sputum % differential eosinophil count, Day 10 level", "setting": "[5]", "result": "7.0% and 2.5% and 1.0% (2×) and 10.5% and 0.3%"}, {"measurement": "Induced sputum absolute differential eosinophil count, Day 10 level", "setting": "[5]", "result": "0.07 10^6/g and 0.03 10^6/g and 0.01 10^6/g (2×) and 0.12 10^6/g and 0.001 10^6/g"}]}
